Experimental findings from US20260286288A1, “REGULATED CELLS EXPRESSING CYTOKINES” (William Marsh Rice University, priority 2023, published 2026) are described below.

Experiment [1] relates to IL2-ks cells (cells expressing IL-2 and an inducible kill switch). Nature of the experiment: Bright field imaging of IL2-ks cells after AP1903. It is filed as cell-based. As to conditions: 100 nM AP1903, 18 hours after administration. From the text: (§1) Images were acquired at 20× magnification.
Experiment [2] has the same test system. Nature of the experiment: IL-2 ELISA of IL2-ks cell supernatant after AP1903. The experiment is classed as cell-based. On the procedure: FIG. 2 is a graph of mIL-2 concentration (pg/mL) of the two cell populations of FIG. 1, the first population (right) not having been exposed to AP1903 and the second population (left) less than 24 hours after exposure to 100 nM AP1903.
FIG. 7A and FIG. 7B are graphs of IL-2 concentration (pg/mL) over time of four alginate-encapsulated, cytokine-producing, kill switch-inducible cell populations exposed to 0 nM, 10 nM, 100 nM, and 1000 nM of small molecule kill switch inducer AP1903.
as §1
On the technique in general: An ELISA detects its analyte on a solid surface through an enzyme-linked reagent.

In experiment [3] the test system is Encapsulated IL2-ks cells. Nature of the experiment: mIL-2 ELISA of capsule supernatant of encapsulated IL2-ks cells after AP1903. As to conditions: 10 nM, 100 nM or 1000 nM AP1903, alginate-encapsulated cells. The experiment is classed as cell-based. On the procedure: FIG. 3A and FIG. 3B are graphs of mIL-2 concentration (pg/mL) over time of four alginate-encapsulated, cytokine-producing, kill switch-inducible cell populations exposed to 0 nM, 10 nM, 100 nM, and 1000 nM of small molecule kill switch inducer AP1903.
as §1

The test system of experiment [4] is encapsulated IL12-ks cells. Nature of the experiment: AP1903-induced encapsulated cell death of mIL12 ks capsules in mice. The experiment is classed as in vivo. From the text:
FIG. 9A is an in vitro assay. […] FIG. 9B is an in vitro assay. […] FIG. 9C is an in vivo assay.

The subject of experiment [5] is RPE-mIL12-ks cells. As to conditions: in vitro and in vivo assays of FIGS. 9A-C.
Protocol: (§2) Images of RPE-mIL 12-ks cells via the microscope 24 hours after 0 nM (left) or 10 nM AP1903 (right) administration. […] Cell viability measured after lysing encapsulated RPE-IL12-ks via cell counter 24 hours post administration (n=3).
(§3) FIG. 9A is series of two annotated photographs of two populations of cytokine-producing, kill switch-inducible cells, the first population (left) not having been exposed to small molecule kill switch inducer AP1903, and the second population (right) 24 hours after exposure to 10 nM AP1903. FIG. 9B is the administration of different concentrations of CID (AP1903) in mIL 12 ks cells in a 24-well plate for 24 hours. […] FIG. 9C is the validation of AP1903 treatment in inducing encapsulated cell death in mice. The inventors implant 50 mIL12 ks capsules in each mouse and administrate half of the mice with AP1903 right after implantation surgeries. Euthanize all the mice after 24 hours, retrieve capsules and lysis capsules for measuring cell viability.
Experiment [6] deals with RPE-mIL12-ks cells. Nature of the experiment: cells. As to conditions: 24 h, read-out: cell death.
Protocol: as §2, §3
Experiment [7] deals with encapsulated IL2-ks cells. Nature of the experiment: Viability of explanted IL2-ks capsules with or without intraperitoneal AP1903.

“Also recorded” adds a separate entry of the source.

Broadly, the viability is the share of living cells, or the viability signal relative to a control. As to `CC[C@H](C(=O)N1CCCC[C@H]1C(=O)O[C@H](CCc1ccc(OC)c(OC)c1)c1cccc(OCC(=O)NCCNC(=O)COc2cccc([C@@H](CCc3ccc(OC)c(OC)c3)OC(=O)[C@@H]3CCCCN3C(=O)[C@@H](CC)c3cc(OC)c(OC)c(OC)c3)c2)c1)c1cc(OC)c(OC)c(OC)c1` [AP1903], the “cell death (bright field images)” value in experiment [1] is given as “induced cell death”. In addition, the “IL-2 concentration from cell supernatant” value in experiment [2] (10 nM, 100 nM or 1000 nM AP1903, 3 hours after administration) is “significant reduction in cytokine production”. In addition, the “mIL-2 concentration from cell supernatant” value in experiment [2] (100 nM AP1903, 18 hours after administration, n=3 wells) is on record as “significant reduction in cytokine production; also recorded: decreased mIL-2 production”. Besides, the “mIL-2 concentration over time from capsule supernatant” value in experiment [3] is “IL-2 production was reduced; also recorded: decreased mIL-2 production”. Further, the “time for encapsulated IL12-ks cells to respond to AP1903” value in experiment [4] (0.4 mg/mL AP1903, healthy mice, n=3) was “less than 24 hours”. Moreover, the “cell viability of retrieved capsules” value in experiment [4] (AP1903 right after implantation of 50 capsules, 24 hours, compared to control mice) is “decreased cell viability”. The “induction of cell death in RPE-mIL 12-ks cells” value in experiment [5] was “highly effective at inducing cell death”. The cytotoxicity at 0.01 µM in experiment [6] was determined as 99%. Besides, the “time for encapsulated IL2-ks cells to respond to AP1903” value in experiment [7] (0.4 mg/mL AP1903, healthy mice) is recorded as “less than 16 hours”. The viability at 400 µg/mL in experiment [7] (Mus musculus, ip, read-out: viability of explanted capsules (live)) was less than 10%.
